Consider 32 compounds from patent publication US20250171431A1, “HETEROCYCLIC INHIBITORS OF IGF-1R FOR TREATMENT OF DISEASE” (HORIZON THERAPEUTICS IRELAND DAC, priority 2023, published 2025).

Each structure is given as a SMILES string. Where only a bound is given, the exact number is not on record here.

Sequence of IGF-1R (P08069 31-1367): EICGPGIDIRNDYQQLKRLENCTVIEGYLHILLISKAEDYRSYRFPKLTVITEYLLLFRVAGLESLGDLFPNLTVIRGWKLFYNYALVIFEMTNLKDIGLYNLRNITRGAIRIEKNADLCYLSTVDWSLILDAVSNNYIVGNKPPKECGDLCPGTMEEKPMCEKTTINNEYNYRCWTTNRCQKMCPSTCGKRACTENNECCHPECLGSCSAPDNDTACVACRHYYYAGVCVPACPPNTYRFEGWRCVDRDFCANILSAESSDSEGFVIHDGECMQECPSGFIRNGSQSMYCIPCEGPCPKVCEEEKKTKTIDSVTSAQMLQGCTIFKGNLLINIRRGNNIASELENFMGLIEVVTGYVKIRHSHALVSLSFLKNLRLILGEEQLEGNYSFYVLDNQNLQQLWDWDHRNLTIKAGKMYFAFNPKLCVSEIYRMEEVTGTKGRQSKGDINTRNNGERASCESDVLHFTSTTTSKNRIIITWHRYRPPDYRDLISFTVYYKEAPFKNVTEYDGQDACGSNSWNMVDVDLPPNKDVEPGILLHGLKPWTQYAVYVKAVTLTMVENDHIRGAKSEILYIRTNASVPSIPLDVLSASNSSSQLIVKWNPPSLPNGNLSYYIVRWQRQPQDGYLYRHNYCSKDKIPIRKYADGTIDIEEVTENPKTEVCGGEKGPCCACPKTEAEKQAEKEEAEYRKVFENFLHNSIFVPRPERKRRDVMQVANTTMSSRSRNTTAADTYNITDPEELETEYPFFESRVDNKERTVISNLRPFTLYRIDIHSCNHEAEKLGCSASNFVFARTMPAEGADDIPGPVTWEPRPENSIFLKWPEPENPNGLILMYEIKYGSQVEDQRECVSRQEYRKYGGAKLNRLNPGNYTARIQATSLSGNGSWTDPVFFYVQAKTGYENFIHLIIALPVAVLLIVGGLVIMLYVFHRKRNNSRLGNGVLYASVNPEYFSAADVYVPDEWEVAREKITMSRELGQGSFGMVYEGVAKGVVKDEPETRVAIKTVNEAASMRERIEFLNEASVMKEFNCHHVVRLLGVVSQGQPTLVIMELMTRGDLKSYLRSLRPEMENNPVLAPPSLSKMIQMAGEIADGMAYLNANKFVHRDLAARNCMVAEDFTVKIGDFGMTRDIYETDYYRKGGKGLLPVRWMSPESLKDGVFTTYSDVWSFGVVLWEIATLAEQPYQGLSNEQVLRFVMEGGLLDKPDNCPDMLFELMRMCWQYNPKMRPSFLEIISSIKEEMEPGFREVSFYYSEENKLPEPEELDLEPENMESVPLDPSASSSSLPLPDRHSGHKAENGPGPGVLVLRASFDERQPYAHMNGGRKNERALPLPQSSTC

This assay deals with IGF-1R (Homo sapiens (Human), UniProt P08069). Kind of assay: Example B-1: IGF-1R Assay (PC3 cells, IGF1 stimulation, AlphaLISA). Format: cell-based. The note with it: 200 ng/mL IGF1 stimulation, read-out: Biological Activity against IGF-1R IC50. An outline of the steps:
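Readout is AlphaLISA signal from lysed PC3 cells, expressed as % inhibition versus vehicle and EC80 controls and banded by IC50. Before lysis, the cells were starved of serum for 2 h, exposed to 3× serially diluted compound for 2 h, and stimulated for 30 min with 200 ng/mL IGF1 (final).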
A general note: In Alpha technology, singlet oxygen from a donor bead excites a nearby acceptor bead.
With `COc1cc(Nc2nccc(Nc3cnc4c(F)cc(Cl)cc4c3)n2)ccc1O[C@H]1C[C@@H](N(C)C)C1` [Compound 114, 4-(6-chloro-8-fluoro-3-quinolylamino)-2-{3-methoxy-4-[(1s,3s)-3-(dimethylamino)cyclobutoxy]phenylamino}pyrimidine], the IC50 – broadly, the concentration at which inhibition is half-maximal – is not above 500 nM.

Consider `COc1cc(Nc2ncc(F)c(Nc3cc4ccccc4nc3C(N)=O)n2)ccc1O[C@H]1C[C@@H](N(C)C)C1` [Compound 193, 3-(5-fluoro-2-{3-methoxy-4-[(1s,3s)-3-(dimethylamino)cyclobutoxy]phenylamino}-4-pyrimidinylamino)-2-quinolinecarboxamide], for which the IC50 is not above 500 nM.

As to `COc1cc(Nc2nccc(Nc3cnc4ccccc4c3)n2)ccc1N1CCC(N2CCN(C)CC2)CC1` [Compound 2, 2-{3-methoxy-4-[4-(4-methyl-1-piperazinyl)-1-piperidyl]phenylamino}-4-(3-quinolylamino)pyrimidine], the IC50 was not above 500 nM.

For `O=S1(=O)CCN([C@H]2C[C@H](Oc3ccc(Nc4nccc(Nc5cnc6c(c5)C5CCC6C5)n4)cc3)C2)CC1` (some centres unmarked) [Compound 351, 4-[(1r,3r)-3-[p-(4-{3-azatricyclo[6.2.1.02,7]undeca-2(7),3,5-trien-5-ylamino}-2-pyrimidinylamino)phenoxy]cyclobutyl]-1λ^6,4-thiazinane-1,1-dione], the half-inhibitory concentration (IC50) was 500 to 2000 nM.

Turning to `COc1cc(Nc2nccc(Nc3cnc4ccc(Cl)cc4c3)n2)ccc1OC1CN(C)C1` [Compound 293, 4-(6-chloro-3-quinolylamino)-2-[3-methoxy-4-(1-methyl-3-azetidinyloxy)phenylamino] pyrimidine], the IC50 was more than 10000 nM.

For `COc1cc(Nc2nccc(Nc3cnc4c(Cl)cccc4c3)n2)ccc1OCCCN1CCOCC1` [Compound 413, 4-(8-chloro-3-quinolylamino)-2-[3-methoxy-4-(3-morpholinopropoxy)phenylamino]pyrimidine], the concentration for half-maximal inhibition (IC50) was not above 500 nM.

`c1cc(Nc2cnc3c(c2)C2CCC3C2)nc(Nc2ccc(OCCCN3CCOCC3)cc2)n1` (centres unmarked) [Compound 372, 4-(3-azatricyclo[6.2.1.0^2,7]undeca-2,4,6-trien-5-ylamino)-2-[p-(3-morpholinopropoxy)phenylamino]pyrimidine]: the IC50 is not above 500 nM.

Consider `COc1cc(Nc2nccc(Nc3cnc4ccc(C5CC5)cc4c3)n2)ccc1OCCCN1CCOCC1` [Compound 103, 4-(6-cyclopropyl-3-quinolylamino)-2-[3-methoxy-4-(3-morpholinopropoxy)phenylamino]pyrimidine], for which the IC50 was not above 500 nM.

On to `COc1cc(Nc2nccc(Nc3cc4cccc(F)c4[nH]c3=O)n2)cnc1N1CCOC(C)(C)C1` [Compound 160, 3-((2-((6-(2,2-dimethylmorpholino)-5-methoxypyridin-3-yl)amino)pyrimidin-4-yl)amino)-8-fluoroquinolin-2(1H)-one], for which the IC50 was not above 500 nM.

In the case of `COc1cc(Nc2nccc(Nc3cnc4ccc(Cl)cc4c3)n2)cnc1N1CCN(C)CC1` [Compound 477, 4-(6-chloro-3-quinolylamino)-2-[5-methoxy-6-(4-methyl-1-piperazinyl)-3-pyridylamino]pyrimidine], the IC50 was not above 500 nM.

Regarding `COc1cc(Nc2nccc(Nc3cnc4ccc(F)cc4c3)n2)ccc1OCCCN1CCCCC1` [Compound 427, 4-(6-fluoro-3-quinolylamino)-2-[3-methoxy-4-(3-piperidinopropoxy)phenylamino]pyrimidine], the half-maximal inhibitory concentration (IC50) is not above 500 nM.

For the compound `COc1cc(Nc2nccc(Nc3cnc4cc(NC(C)=O)ccc4c3)n2)ccc1O[C@H]1C[C@@H](N(C)C)C1` [Compound 9, N-[3-(2-{3-methoxy-4-[(1s,3s)-3-(dimethylamino)cyclobutoxy]phenylamino}-4-pyrimidinylamino)-7-quinolyl]acetamide], the IC50 was not above 500 nM.

With `COc1cc(Nc2nccc(Nc3cnc4ccc(C)cc4c3)n2)ccc1OCCCN1CCCCC1` [Compound 429, 2-[3-methoxy-4-(3-piperidinopropoxy)phenylamino]-4-(6-methyl-3-quinolylamino)pyrimidine], the half-inhibitory concentration (IC50) is not above 500 nM.

For the compound `COc1cc(Nc2nccc(Nc3cnc4c(c3)O[C@H]3CCC[C@@H]3O4)n2)ccc1O[C@H]1C[C@@H](N(C)C)C1` [Compound 192, 4-{(3S,7S)-2,8-dioxa-10-azatricyclo[7.4.0.03,7]trideca-1(13),9,11-trien-12-ylamino}-2-{3-methoxy-4-[(1s,3R)-3-(dimethylamino)cyclobutoxy]phenylamino}pyrimidine], the IC50 is not above 500 nM.

`COc1cc(Nc2nccc(Nc3cnc4c(c3)CCC3(CCCC3)C4)n2)ccc1O[C@H]1C[C@H](N(C)C)C1` [Compound 78, 4-(6′,8′-dihydro-5′H-spiro[cyclopentane-1,7′-quinolin]-3′-ylamino)-2-{3-methoxy-4-[(1r,3r)-3-(dimethylamino)cyclobutoxy]phenylamino}pyrimidine]: the IC50 was not above 500 nM.

For `COc1cc(Nc2nccc(Nc3cnc4ccc(F)c(F)c4c3)n2)ccc1O[C@H]1C[C@@H](N(C)C)C1` [Compound 125, 4-(5,6-difluoro-3-quinolylamino)-2-{3-methoxy-4-[(1s,3s)-3-(dimethylamino)cyclobutoxy]phenylamino}pyrimidine], the IC50 was not above 500 nM.

Turning to `COc1ccc2cc(Nc3ccnc(Nc4ccc(O[C@H]5C[C@H](N(C)C)C5)c(OC)c4)n3)cnc2c1` [Compound 337, 4-(7-methoxy-3-quinolylamino)-2-{3-methoxy-4-[(1r,3r)-3-(dimethylamino)cyclobutoxy]phenylamino}pyrimidine], the IC50 was not above 500 nM.

`COc1cc(N2CCC(C)(O)CC2)ncc1Nc1ncc(F)c(Nc2cc3ccccc3nc2C(N)=O)n1` [Compound 492, 3-{5-fluoro-2-[6-(4-hydroxy-4-methyl-1-piperidyl)-4-methoxy-3-pyridylamino]-4-pyrimidinylamino}-2-quinolinecarboxamide]: the IC50 is not above 500 nM.

Turning to `COc1cc(Nc2nccc(Nc3cnc4cc(F)c(F)cc4c3)n2)cnc1N1CC2CCC(C1)O2` [Compound 126, 4-(6,7-difluoro-3-quinolylamino)-2-{5-methoxy-6-(8-oxa-3-azabicyclo[3.2.1]oct-3-y1)-3-pyridylamino}pyrimidine], the IC50 lay within 500 to 2000 nM.

On to `COc1ccc2cc(Nc3ccnc(Nc4ccc(OCCCN5CCCCC5)c(OC)c4)n3)ccc2c1` [Compound 444, 4-(6-methoxy-2-naphthylamino)-2-[3-methoxy-4-(3-piperidinopropoxy)phenylamino] pyrimidine], for which the half-inhibitory concentration (IC50) was not above 500 nM.

Take `COc1cc(Nc2nccc(Nc3cnc4ccc(OC(F)(F)F)cc4c3)n2)ccc1OCCCN1CCCCC1` [Compound 6, 2-[3-methoxy-4-(3-piperidinopropoxy)phenylamino]-4-(6-trifluoromethoxy-3-quinolylamino)pyrimidine]: the IC50 was not above 500 nM.

On to `CN(C)[C@H]1C[C@H](Oc2ccc(Nc3nccc(Nc4cnc5ccccc5c4)n3)cc2C#N)C1` [Compound 42, 5-[4-(3-quinolylamino)-2-pyrimidinylamino]-2-[(1r,3r)-3-(dimethylamino)cyclobutoxy] benzonitrile], for which the IC50 was not above 500 nM.

`COc1cc(Nc2nccc(Nc3ccc4scnc4c3)n2)ccc1OCCCN1CCCCC1` [Compound 443, 4-(1,3-benzothiazol-5-ylamino)-2-[3-methoxy-4-(3-piperidinopropoxy)phenylamino] pyrimidine]: the IC50 was not above 500 nM.

For the compound `COc1cc(Nc2nccc(Nc3ccc4c(n3)CC3CCC4N3C)n2)ccc1OCCCN1CCCCC1` (centres unmarked) [Compound 4, 2-[3-methoxy-4-(3-piperidinopropoxy)phenylamino]-4-(12-methyl-6,12-diazatricyclo[7.2.1.0^2,7]dodeca-2,4,6-trien-5-ylamino)pyrimidine], the half-maximal inhibitory concentration (IC50) lay in the range of 2000 to 10000 nM.

Take `COc1cc(Nc2nccc(Nc3cnc4cc(Br)cnc4c3)n2)ccc1O[C@H]1C[C@@H](N(C)C)C1` [Compound 316, 4-(7-bromo-1,5-diaza-3-naphthylamino)-2-{3-methoxy-4-[(1s,3s)-3-(dimethylamino)cyclobutoxy]phenylamino}pyrimidine]: the half-maximal inhibitory concentration (IC50) was not above 500 nM.

Turning to `COc1cc(Nc2nccc(Nc3cnc4ccc(C#N)cc4c3)n2)ccc1O[C@H]1C[C@@H](N(C)C)C1` [Compound 313, 3-(2-{3-methoxy-4-[(1s,3s)-3-(dimethylamino)cyclobutoxy]phenylamino}-4-pyrimidinylamino)-6-quinolinecarbonitrile], the IC50 is not above 500 nM.

`CN1CC(Oc2ccc(Nc3nccc(Nc4cnc5ccc(Cl)cc5c4)n3)cc2)C1` [Compound 294, 4-(6-chloro-3-quinolylamino)-2-[p-(1-methyl-3-azetidinyloxy)phenylamino] pyrimidine]: the IC50 is 2000 to 10000 nM.

Consider `O=S1(=O)CCN(CCCOc2ccc(Nc3nccc(Nc4cnc5c(Cl)cccc5c4)n3)cc2)CC1` [Compound 398, 4-(3-{p-[4-(8-chloro-3-quinolylamino)-2-pyrimidinylamino]phenoxy}propyl)-1λ^6,4-thiazinane-1,1-dione], for which the IC50 is not above 500 nM.

With `COc1cc(Nc2nccc(Nc3cnc4ccc(Cl)cc4c3)n2)ccc1O[C@H]1C[C@H](N2CCOCC2)C1` [Compound 361, 4-(6-chloro-3-quinolylamino)-2-{3-methoxy-4-[(1r,3r)-3-morpholinocyclobutoxy]phenylamino}pyrimidine], the IC50 is not above 500 nM.

In the case of `COc1cc(Nc2nccc(Nc3cnc4cc(F)c(F)cc4c3)n2)c(C)cc1O[C@H]1C[C@@H](N(C)C)C1` [Compound 154, N4-(6,7-difluoroquinolin-3-yl)-N2-(4-((1s,3s)-3-(dimethylamino)cyclobutoxy)-5-methoxy-2-methylphenyl)pyrimidine-2,4-diamine], the IC50 was not above 500 nM.

As for `COc1nc(N2CCN(C)CC2)ccc1Nc1nccc(Nc2cnc3ccc(Cl)cc3c2)n1` [Compound 485, 4-(6-chloro-3-quinolylamino)-2-[2-methoxy-6-(4-methyl-1-piperazinyl)-3-pyridylamino]pyrimidine], the IC50 is not above 500 nM.

On to `COc1cc(Nc2nccc(Nc3cc4ccccc4[nH]c3=O)n2)ccc1OCCCN1CCCCC1` [Compound 250, 3-{2-[3-methoxy-4-(3-piperidinopropoxy)phenylamino]-4-pyrimidinylamino}-2(1H)-quinolinone], for which the IC50 is not above 500 nM.
